Measured values from patent US20260358340A1, “MATRIX METALLOPROTEINASE 13 SENSITIVE PEPTIDES AND SENSORS” (Julius-Maximilians-Universitaet Wuerzburg, priority 2023, published 2026).

How the values were obtained:
Type in all cases: biochemical
Conditions in all cases: role: inhibitor; substrate FRET peptide
MMP13 = MMP13 (Homo sapiens, UniProt P45452); test: FRET peptide cleavage assay, MMP13 activity and its inhibition
Description: (§1) A possible application of the peptides is the analysis of protease activity and the effect of substances on it. This can be utilized for understanding the role of proteases in physiological and pathological processes as well as for targeting proteases for disease diagnosis or treatment. […] 7-Methoxycoumain-4-acetic acid (Mca) is a is a fluorescent dye with an excitation peak at 322 nm and an emission peak at 381 nm. The absorbance spectrum of 2,4-dinitrophenyl (Dnp) overlaps with the emission spectrum of Mca, therefore it acts as a quencher. As long as both are in close proximity (up to about 5-10 nm), excitation of Mca leads to energy transfer to Dnp. Separation of the fluorophore-quencher pair by hydrolysis of the protease-specific cleavage site between both compounds liberates the fluorescence signal and the rise in its intensity can easily be monitored overtime.

MMP9 = MMP9 (Homo sapiens, UniProt P14780); test: FRET peptide cleavage assay, MMP9 activity and its inhibition
Description: as §1, with “overtime. This method is sensitive and time efficient. It allows quantitative assessment of enzymatic activity and the developed fluorogenic substrates are suitable for high throughput screening, for example of protease inhibitors.” for “overtime.”

MMP8 = MMP8 (Homo sapiens, UniProt P22894); test: FRET peptide cleavage assay, MMP8 activity and its inhibition
Description: as §1, with “overtime. This method is sensitive and time efficient. It allows quantitative assessment of enzymatic activity and the developed fluorogenic substrates are suitable for high throughput screening, for example of protease inhibitors.” for “overtime.”

Sequence of MMP8 (P22894 101-467): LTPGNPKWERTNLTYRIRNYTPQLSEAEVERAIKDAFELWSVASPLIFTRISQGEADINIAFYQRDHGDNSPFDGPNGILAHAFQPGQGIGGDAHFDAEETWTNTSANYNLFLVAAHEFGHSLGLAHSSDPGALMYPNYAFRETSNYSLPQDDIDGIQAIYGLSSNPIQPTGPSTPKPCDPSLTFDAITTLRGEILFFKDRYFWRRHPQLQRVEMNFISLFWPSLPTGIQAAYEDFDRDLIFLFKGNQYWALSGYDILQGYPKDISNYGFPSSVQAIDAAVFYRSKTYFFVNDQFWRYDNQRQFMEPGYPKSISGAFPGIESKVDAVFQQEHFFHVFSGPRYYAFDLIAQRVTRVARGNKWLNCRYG
Sequence of MMP9 (P14780 94-707): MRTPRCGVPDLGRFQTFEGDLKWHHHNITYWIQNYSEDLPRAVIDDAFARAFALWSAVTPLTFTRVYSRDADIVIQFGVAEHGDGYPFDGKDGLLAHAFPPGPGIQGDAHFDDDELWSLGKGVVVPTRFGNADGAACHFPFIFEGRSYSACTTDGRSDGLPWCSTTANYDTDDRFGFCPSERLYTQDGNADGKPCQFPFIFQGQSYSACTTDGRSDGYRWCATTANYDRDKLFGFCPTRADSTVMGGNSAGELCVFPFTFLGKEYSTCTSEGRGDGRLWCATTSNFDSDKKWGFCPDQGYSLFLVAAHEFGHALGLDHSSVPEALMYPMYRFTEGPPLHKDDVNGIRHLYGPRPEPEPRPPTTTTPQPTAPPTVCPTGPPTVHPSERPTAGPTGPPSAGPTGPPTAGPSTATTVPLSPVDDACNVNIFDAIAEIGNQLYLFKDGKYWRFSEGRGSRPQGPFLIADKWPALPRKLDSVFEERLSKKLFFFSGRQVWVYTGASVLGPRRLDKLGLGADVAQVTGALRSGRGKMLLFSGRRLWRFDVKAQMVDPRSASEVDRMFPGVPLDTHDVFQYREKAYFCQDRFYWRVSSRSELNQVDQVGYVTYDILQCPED

SMILES	loss of MMP13 activity (MMP13)	loss of MMP9 activity (MMP9)	loss of MMP8 activity (MMP8)
O=C(O)CN(CCN(CC(=O)O)CC(=O)O)CC(=O)O [EDTA]	complete loss	complete loss	complete loss
CNC(=O)[C@@H](NC(=O)[C@H](CC(C)C)[C@H](O)C(=O)NO)C(C)(C)C [Marimastat]		complete loss	complete loss
CCCCCCCCCCCCOS(=O)(=O)[O-].[Na+] [SDS]	complete loss	complete loss	complete loss
